# Source: patent US10995091B2 (Proximagen, LLC, priority 2010, dated 2021)
# Target: T1, Human CXCR4 transfected HEK293 cells (Homo sapiens, UniProt P61073)
# T1 construct: expressed in transfected cells; host or cells: HEK293
# Experiment: CXCR4 functional calcium assay (calcium flux FLIPR, antagonism of SDF1 response)
# Type: cell-based
# Settings: CXCR4 functional activity, antagonism of SDF1 (EC50 concentration), read-out: CXCR4 fKi
# Experimental: The functional activity of test compounds was routinely tested by measuring the ability of compounds to antagonize CXCR4 activity in a dose dependent manner, using a calcium flux Fluorescent Imaging Plate Reader FLIPR assay.
# Human CXCR4 transfected HEK293 cells were cultured in Dulbecco's modified Eagles medium containing 4.5 g/L glucose, L-glutamine, pyruvate, 50 µg/mL Geneticin and 250 µg/mL hygromycin B and maintained at 37° C. in a humidified, 5% CO2 controlled atmosphere. Subcultivations were performed every 2-3 d.
# At confluence the cells were lifted using Ca^2+ and Mg^2+ free PBS/0.02% (w/v) EDTA, spun at 1000 rpm for 3 min and resuspended at 2.5×10^5 cells/mL. Cells were plated into a 384 well, poly-d-lysine coated, black with clear bottomed plate (Becton Dickinson) at 7500 cells/well. The plates were incubated overnight at 37° C. under 5% CO2. On the day of the experiment the cells were washed with incubation Buffer (HBSS containing 2.5 mM probenecid, 0.1% w/v BSA and 10 mM HEPES, pH 7.4 at 37° C.). After washing, the cells were loaded with Fluo-4 AM dye (Molecular probes) at 2 µM containing 0.48 µg/mL pluronic acid for 60 min at 37° C. under 5% CO2. After thorough washing with incubation buffer the cells were preincubated for 10 min at 37° C. before use.
# A combined agonist/antagonist protocol was used to measure changes in intracellular calcium concentration. Compound (antagonist) was added to the cell plate using a Fluorometric Imaging Plate Reader (FLIPR) (Molecular Devices, Sunnyvale, Calif., USA). Basal fluorescence was recorded every second for 10 seconds prior to compound addition (10 μl) and fluorescence recorded every second for 1 min then every 6 seconds for a further 1 min. SDF1[…] (EC50 concentration) was then added using the FLIPR and fluorescence recorded as described above. Curve-fitting and parameter estimation were carried out using GraphPad Prism 4.0 (GraphPad Software Inc., San Diego, Calif.).
# T1 sequence (P61073 whole entry): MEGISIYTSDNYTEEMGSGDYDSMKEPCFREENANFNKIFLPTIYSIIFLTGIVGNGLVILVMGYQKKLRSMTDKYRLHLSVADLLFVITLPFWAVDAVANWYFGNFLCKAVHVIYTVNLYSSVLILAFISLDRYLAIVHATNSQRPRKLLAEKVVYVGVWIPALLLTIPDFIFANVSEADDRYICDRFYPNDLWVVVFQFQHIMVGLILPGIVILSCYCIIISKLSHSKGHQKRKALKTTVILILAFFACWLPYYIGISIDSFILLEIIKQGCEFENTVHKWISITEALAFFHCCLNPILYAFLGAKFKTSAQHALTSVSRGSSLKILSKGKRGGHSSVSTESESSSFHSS
row,Ki,SMILES
1,500 to 1000 nM,"CCCCc1cnc(-c2cccc(N3CCCN(C4CCN(C(C)C)CC4)CC3)n2)o1 [Example 171, 1-[6-(5-Butyl-1,3-oxazol-2-yl)pyridin-2-yl]-4-[1-(propan-2-yl)piperidin-4-yl]-1,4-diazepane]"
2,20 to 100 nM,"COc1ccc2nc(-c3cccc(N4CCCN(C5CCN(C(C)C)CC5)CC4)n3)[nH]c2c1 [Example 150, 6-Methoxy-2-(6-{4-[1-(propan-2-yl)piperidin-4-yl]-1,4-diazepan-1-yl}pyridine-2-yl)-1H-1,3-benzodiazole]"
3,20 to 100 nM,"Cc1nc(-c2cccc(NCCNC3CCCN(C4CCCC4)CC3)n2)[nH]c1C1CC1 (stereo not shown) [Example 246, 1-Cyclopentyl-N-(2-{[6-(5-cyclopropyl-4-methyl-1H-imidazol-2-yl)pyridin-2-yl]amino}ethyl)azepan-4-amine]"
4,20 to 100 nM,"CC1CN(c2cccc(C(=O)Nc3ccncc3)n2)CCN(C2CCN(C(C)C)CC2)C1 (stereo not shown) [Example 182, 6-{6-Methyl-4-[1-(propan-2-yl)piperidin-4-yl]-1,4-diazepan-1-yl}-N-(pyridin-4-yl)pyridine-2-carboxamide]"
5,100 to 500 nM,"CC(C)N1CCC(N2CCCN(c3cccc(C(=O)NCC4CCOCC4)n3)CC2)CC1 [Example 1, N-(Oxan-4-ylmethyl)-6-{4-[1-(propan-2-yl)piperidin-4-yl]-1,4-diazepan-1-yl}pyridine-2-carboxamide]"
6,100 to 500 nM,"CC(C)N1CCC(N2CCCN(c3cccc(-c4cc5ccc(C#N)cc5[nH]4)n3)CC2)CC1 [Example 103, 2-(6-{4-[1-(Propan-2-yl)piperidin-4-yl]-1,4-diazepan-1-yl}pyridine-2-yl)-1H-indole-6-carbonitrile]"
7,100 to 500 nM,"CC(C)N1CCC(NC2CCN(c3cccc(C(=O)Nc4ccncc4)n3)CC2)CC1 [Example 249, 6-(4-{[1-(Propan-2-yl)piperidin-4-yl]amino}piperidin-1-yl)-N-(pyridin-4-yl)pyridine-2-carboxamide]"
8,500 to 1000 nM,"CC(C)N1CCC(N2CCCN(c3cccc(-c4c[nH]c5ccccc45)n3)CC2)CC1 [Example 102, 3-(6-{4-[1-(Propan-2-yl)piperidin-4-yl]-1,4-diazepan-1-yl}pyridine-2-yl)-1H-indole]"
9,20 to 100 nM,"CCc1cn(C)c(-c2cccc(N3CCCN(C4CCN(C(C)C)CC4)CC3)n2)n1 [Example 124, 1-[6-(4-Ethyl-1-methyl-1H-imidazol-2-yl)pyridine-2-yl]-4-[1-(propan-2-yl)piperidin-4-yl]-1,4-diazepane]"
10,< 20 nM,"Cc1cc(NC(=O)c2cccc(N3CCCN(C4CCN(C(C)C)CC4)CC3)n2)ccn1 [Example 86, N-(2-Methylpyridin-4-yl)-6-{4-[1-(propan-2-yl)piperidin-4-yl]-1,4-diazepan-1-yl}pyridine-2-carboxamide]"
11,100 to 500 nM,"CC(C)N1CCCC(NCCNc2cccc(C(=O)Nc3ccncc3)n2)CC1 (stereo not shown) [Example 234, 6-[(2-{[1-(Propan-2-yl)azepan-4-yl]amino}ethyl)amino]-N-(pyridin-4-yl)pyridine-2-carboxamide]"
12,500 to 1000 nM,"COc1ccc2[nH]c(-c3cccc(N4CCCN(C5CCN(C(C)C)CC5)CC4)n3)cc2c1 [Example 105, 5-Methoxy-2-(6-{4-[1-(propan-2-yl)piperidin-4-yl]-1,4-diazepan-1-yl}pyridine-2-yl)-1H-indole]"
13,20 to 100 nM,"CCCCNC(=O)c1cccc(N2CCCN(C3CCN(C(C)C)CC3)CC2)n1 [Example 7, N-Butyl-6-{4-[1-(propan-2-yl)piperidin-4-yl]-1,4-diazepan-1-yl}pyridine-2-carboxamide]"
14,100 to 500 nM,"CC(C(F)F)N1CCC(N2CCCN(c3cccc(C(=O)NCC4CC4)n3)CC2)CC1 (stereo not shown) [Example 68, N-(Cyclopropylmethyl)-6-{4-[1-(1,1-difluoropropan-2-yl)piperidin-4-yl]-1,4-diazepan-1-yl}pyridine-2-carboxamide]"
15,< 20 nM,"[2H]C1([2H])CCN(C2CCN(C3CCCC3)CC2)CCN1c1cccc(C(=O)Nc2ccncc2)n1 [Example 179, 6-[4-(1-Cyclopentylpiperidin-4-yl)-7,7-dihydrogenio-1,4-diazepan-1-yl]-N-(pyridine-4-yl)pyridine-2-carboxamide]"
16,100 to 500 nM,"c1cc(NCCNC2CCCN(C3CCCC3)C2)nc(-c2ncc(C3CC3)[nH]2)c1 (stereo not shown) [Example 230, 1-Cyclopentyl-N-(2-{[6-(5-cyclopropyl-1H-imidazol-2-yl)pyridin-2-yl]amino}ethyl)piperidin-3-amine]"
17,20 to 100 nM,"O=C(Nc1ccncc1)c1cccc(N2CCN(C3CCCN(Cc4ccc(F)cc4Cl)CC3)CC2)n1 (stereo not shown) [Example 241, 6-(4-{1-[(2-Chloro-4-fluorophenyl)methyl]azepan-4-yl}piperazin-1-yl)-N-(pyridin-4-yl)pyridine-2-carboxamide]"
18,20 to 100 nM,"CC(CC(F)(F)F)N1CCC(N2CCCN(c3cccc(C(=O)NCC4CC4)n3)CC2)CC1 (stereo not shown) [Example 70, N-(Cyclopropylmethyl)-6-{4-[1-(4,4,4-trifluorobutan-2-yl)piperidin-4-yl]-1,4-diazepan-1-yl}pyridine-2-carboxamide]"
19,20 to 100 nM,"COc1ccc(NC(=O)c2cccc(N3CCCN(C4CCN(C(C)C)CC4)CC3)n2)cc1 [Example 26, N-(4-Methoxyphenyl)-6-{4-[1-(propan-2-yl)piperidin-4-yl]-1,4-diazepan-1-yl}pyridine-2-carboxamide]"
20,500 to 1000 nM,"O=C(NCC1CC1)c1csc(N2CCCN(C3CCN(Cc4ccccc4Cl)CC3)CC2)n1 [Example 265, 2-(4-{1-[(2-Chlorophenyl)methyl]piperidin-4-yl}-1,4-diazepan-1-yl)-N-(cyclopropylmethyl)-1,3-thiazole-4-carboxamide]"
21,20 to 100 nM,"[2H]C1([2H])CCN(C2CCN(C(C)C)CC2F)CCN1c1cccc(C(=O)Nc2ccncc2)n1 (stereo not shown) [Example 211, 6-{4-[3-Fluoro-1-(propan-2-yl)piperidin-4-yl]-7,7-dihydrogenio-1,4-diazepan-1-yl}-N-(pyridin-4-yl)pyridine-2-carboxamide]"
22,20 to 100 nM,"O=C(NCc1ncco1)c1cccc(N2CCCN(C3CCN(Cc4ccccc4Cl)CC3)CC2)n1 [Example 57, 6-(4-{1-[(2-Chlorophenyl)methyl]piperidin-4-yl}-1,4-diazepan-1-yl)-N-(1,3-oxazol-2-ylmethyl)pyridine-2-carboxamide]"
23,< 20 nM,"[2H]C1([2H])CCN(C2CCN([C@@H](C)CC)CC2)CCN1c1cccc(C(=O)Nc2ccncc2)n1 [Example 177, 6-(4-{1-[(2S)-Butan-2-yl]piperidin-4-yl}-7,7-dihydrogenio-1,4-diazepan-1-yl)-N-(pyridine-4-yl)pyridine-2-carboxamide]"
24,20 to 100 nM,"Cc1cnc(-c2cccc(N3CCCN(C4CCN(C(C)C)CC4)CC3)n2)[nH]1 [Example 107, 1-[6-(4-Methyl-1H-imidazol-2-yl)pyridine-2-yl]-4-[1-(propan-2-yl)piperidin-4-yl]-1,4-diazepane]"
25,20 to 100 nM,"CC(C)N1CCC(N2CCN(c3cccc(C(=O)NCC4CC4)n3)CCC2C)CC1 (stereo not shown) [Example 184, N-(Cyclopropylmethyl)-6-{5-methyl-4-[1-(propan-2-yl)piperidin-4-yl]-1,4-diazepan-1-yl}pyridine-2-carboxamide]"
26,< 20 nM,"[2H]C1([2H])CCN(c2cccc(C(=O)Nc3ccncc3)n2)CC(C)N1C1CCN(Cc2ccc(F)cc2Cl)CC1 (stereo not shown) [Example 207, 6-(4-{1-[(2-Chloro-4-fluorophenyl)methyl]piperidin-4-yl}-5,5-dihydrogenio-3-methyl-1,4-diazepan-1-yl)-N-(pyridin-4-yl)pyridine-2-carboxamide]"
27,100 to 500 nM,"CC(C)N1CCC(N2CCCN(c3cccc(-c4nc(-c5ccccc5)no4)n3)CC2)CC1 [Example 170, 1-[6-(3-Phenyl-1,2,4-oxadiazol-5-yl)pyridin-2-yl]-4-[1-(propan-2-yl)piperidin-4-yl]-1,4-diazepane]"
28,100 to 500 nM,"O=C(NCC1CC1)c1ccnc(N2CCCN(C3CCN(Cc4ccccc4Cl)CC3)CC2)c1 [Example 269, 2-(4-{1-[(2-chlorophenyl)methyl]piperidin-4-yl}-1,4-diazepan-1-yl)-N-(cyclopropylmethyl)pyridine-4-carboxamide]"
29,100 to 500 nM,"CC(C)N1CCC(N2CCCN(c3cccc(C(=O)NCC(F)(F)F)n3)CC2)CC1 [Example 10, 6-{4-[1-(Propan-2-yl)piperidin-4-yl]-1,4-diazepan-1-yl}-N-(2,2,2-trifluoroethyl)pyridine-2-carboxamide]"
30,100 to 500 nM,"CCCC(=O)c1cccc(N2CCCN(C3CCN(C(C)C)CC3)CC2)n1 [Example 219, 1-(6-{4-[1-(Propan-2-yl)piperidin-4-yl]-1,4-diazepan-1-yl}pyridin-2-yl)butan-1-one]"

row,SMILES,Ki
1,"O=C(Nc1ccncc1)c1cccc(N2CC3CCC(C2)N(C2CCN(Cc4ccccc4Cl)CC2)C3)n1 (stereo not shown) [Example 208, 6-(6-{1-[(2-Chlorophenyl)methyl]piperidin-4-yl}-3,6-diazabicyclo[3.2.2]nonan-3-yl)-N-(pyridin-4-yl)pyridine-2-carboxamide]",100 to 500 nM
